Counter-ions that a name gives are not always drawn.
Tested on: mouse
Experiment: mouse hot plate test (analgesic activity)
Type: in vivo
Settings: hot plate 52° C., 15 minutes after administration, latency to jump
Procedure: In this test, a mouse is placed inside an upright acrylic cylinder comprising, as its base, a hot plate surface which is maintained at 52° C. The mouse is given, orally or by subcutaneous injection, a predetermined amount of test compound dissolved or suspended in a suitable carrier, and, 15 minutes after administration of the test compound, the mouse is placed on the hot plate surface. The latency in seconds until the mouse jumps from the hot plate surface is measure. […] This must occur in a dose range which produces no motor incoordination or incapacitation. The following Table records the ED50 results obtained from this test.

Structure (SMILES) | Analgesic Activity, Hot Plate Test ED50, mg./kg. subcutaneous [mg/kg]
C=CCN(C(=O)CNC(=O)[C@@H](C)NC(=O)[C@@H](N)Cc1ccc(O)cc1)[C@@H](Cc1ccccc1)C(N)=O [Example 1, L-Tyrosyl-D-alanyl-glycyl-L-(N^α -allyl)phenylalanine Amide, Acetate Salt] | 0.01
C[C@@H](NC(=O)[C@@H](N)Cc1ccc(O)cc1)C(=O)NCC(=O)N(CC1CC1)[C@@H](Cc1ccccc1)C(N)=O [Example 2, L-Tyrosyl-D-alanyl-glycyl-L-(N^α -cyclopropylmethyl)phenylalanine Amide, Acetate Salt] | 0.012
